pIC50: −log10 of the molar value. Structures can show the parent of a compound that is named as a salt.
biological target: T1, purified human IDO protein (Homo sapiens, UniProt P14902); assay: Enzymatic IDO assay (kynurenine production, absorbance at 480 nm); assay type: biochemical; details: hIDO IC50, recombinant human IDO; values reported in ranges
T1 construct: 2 extra amino acids (linker from the BglII cloning site of pQE70); made in house; host or cells: E. coli M15(pREP4) with plasmid pQE70-hIDO
T1 sequence (P14902 whole entry P110S/E119G): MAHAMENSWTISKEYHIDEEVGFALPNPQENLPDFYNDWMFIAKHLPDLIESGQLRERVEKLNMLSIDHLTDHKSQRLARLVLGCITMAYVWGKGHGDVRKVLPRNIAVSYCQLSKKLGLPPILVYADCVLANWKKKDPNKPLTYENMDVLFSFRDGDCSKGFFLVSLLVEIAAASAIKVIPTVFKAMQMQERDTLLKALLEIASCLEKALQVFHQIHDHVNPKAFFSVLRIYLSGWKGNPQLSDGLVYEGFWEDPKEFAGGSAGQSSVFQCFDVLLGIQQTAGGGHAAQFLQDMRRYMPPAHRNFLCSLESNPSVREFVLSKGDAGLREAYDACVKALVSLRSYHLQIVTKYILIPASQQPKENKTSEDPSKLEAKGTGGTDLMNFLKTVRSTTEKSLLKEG
Method in brief: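 Inhibitors (final 1 mM to 5 nM, in 50 mM potassium phosphate) preincubated with enzyme 5 min at 25 °C, then 200 μM L-tryptophan added, 15 min at 37 °C. TCA stop and 60 °C hydrolysis to kynurenine, detected with p-dimethylaminobenzaldehyde at 480 nm. IC50 by nonlinear regression.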

Structure (SMILES) | pIC50
CN(C)C(=O)Oc1ccc(Cl)cc1-c1c[nH]cn1 [compound 1076, 4-chloro-2-(1H-imidazol-4-yl)phenyl dimethylcarbamate] | < 4.00
Oc1c(Cl)cc(Cl)c(OCCC2CCCCC2)c1-c1cnc[nH]1 [compound 1086, 4,6-dichloro-3-(2-cyclohexylethoxy)-2-(1H-imidazol-5-yl)phenol] | < 4.00

same assay, conditions: recombinant human IDO; values reported in ranges; read-out: hIDO IC50

pIC50 | Structure (SMILES)
5.00 to 6.00 | Oc1cc(Cl)cc(-c2cnc[nH]2)c1O [compound 1221, 5-chloro-3-(1H-imidazol-5-yl)benzene-1,2-diol]
> 6.00 | O=C(Cc1ccccc1[N+](=O)[O-])Nc1ccc(CCOc2ccccc2-c2c[nH]cn2)cc1 [compound 1242, N-(4-(2-(2-(1H-imidazol-4-yl)phenoxy)ethyl)phenyl)-2-(2-nitrophenyl)acetamide]
4.00 to 5.00 | OC(COc1ccccc1-c1c[nH]cn1)c1cccc(Br)c1 (centres unmarked) [compound 954, 2-(2-(1H-imidazol-4-yl)phenoxy)-1-(3-bromo-phenyl)ethanol]
4.00 to 5.00 | Oc1ccc(OCc2ccccc2)cc1-c1cnc[nH]1 [compound 1105, 4-(benzyloxy)-2-(1H-imidazol-5-yl)phenol]
5.00 to 6.00 | CC(COc1ccccc1-c1c[nH]cn1)C1CCCCC1 (centres unmarked) [compound 1052, 4-(2-(2-cyclohexylpropoxy)phenyl)-1H-imidazole hydrochloride]
5.00 to 6.00 | O=C(Nc1ccc(CCOc2ccccc2-c2c[nH]cn2)cc1)c1cccs1 [compound 1150, N-(4-(2-(2-(1H-imidazol-4-yl)phenoxy)ethyl)phenyl)thiophene-2-carboxamide]
5.00 to 6.00 | CC(C)(C)OC(=O)Nc1ccc(CCOc2ccccc2-c2c[nH]cn2)cc1 [compound 1046, tert-butyl 4-(2-(2-(1H-imidazol-4-yl)phenoxy)ethyl)phenylcarbamate]
> 6.00 | O=C(CC1CCOCC1)Nc1ccc(CCOc2ccccc2-c2c[nH]cn2)c(Cl)c1 [compound 1260, N-(4-(2-(2-(1H-imidazol-4-yl)phenoxy)ethyl)-3-chlorophenyl)-2-(tetrahydro-2H-pyran-4-yl)acetamide]
5.00 to 6.00 | O=C(Nc1ccccc1)Nc1ccc(CCOc2ccccc2-c2c[nH]cn2)cn1 [compound 1224, 1-(5-(2-(2-(1H-imidazol-4-yl)phenoxy)ethyl)pyridin-2-yl)-3-phenylurea]
< 4.00 | O=C(O)c1ccccc1CCOc1ccccc1-c1c[nH]cn1 [compound 1325, 2-(2-(2-(1H-imidazol-4-yl)phenoxy)ethyl) benzoic acid]
5.00 to 6.00 | CC(C)(C)C(=O)Nc1ccc(CCOc2ccccc2-c2c[nH]cn2)cc1 [compound 1101, N-(4-(2-(2-(1H-imidazol-4-yl)phenoxy)ethyl)phenyl)pivalamide]
5.00 to 6.00 | Oc1cccc(OCCC2CC=CCC2)c1-c1cnc[nH]1 (centres unmarked) [compound 1182, 3-(2-(cyclohex-3-en-1-yl)ethoxy)-2-(1H-imidazol-5-yl)phenol]
< 4.00 | COc1ncccc1-c1c[nH]cn1 [compound 1012, 3-(1H-imidazol-4-yl)-2-methoxypyridine]
< 4.00 | CC(=O)Nc1ccccc1-c1c[nH]cn1 [compound 1121, N-(2-(1H-imidazol-4-yl)phenyl)acetamide]
4.00 to 5.00 | O=C(Nc1ccc(CCOc2ccccc2-c2c[nH]cn2)cc1)NC1CCOCC1 [compound 1263, 1-(4-(2-(2-(1H-imidazol-4-yl)phenoxy)ethyl)phenyl)-3-(tetrahydro-2H-pyran-4-yl)urea]
4.00 to 5.00 | c1ccc(-c2c[nH]cn2)c(OCCc2ccsc2)c1 [compound 1203, 4-(2-(2-(thiophen-3-yl)ethoxy)phenyl)-1H-imidazole]
5.00 to 6.00 | Oc1cc(F)c(Cl)cc1-c1cnc[nH]1 [compound 1130, 4-chloro-5-fluoro-2-(1H-imidazol-5-yl)phenol]

Structure (SMILES) | pIC50
CC(C)(C)CCOc1ccc(O)cc1-c1c[nH]cn1 [compound 1110, 4-(3,3-dimethylbutoxy)-3-(1H-imidazol-4-yl) phenol] | 4.00 to 5.00

Reference: patent publication US8722720B2, “Imidazole derivatives as IDO inhibitors” (NewLink Genetics Corporation, priority 2010, dated 2014)
